Test results from patent US20100285959A1, “HERBICIDAL MIXTURES” (priority 2006, published 2010).

Assays:
redroot pigweed (AMARE) = assay: Test 24 growth chamber, postemergence; assay type: in vivo, Amaranthus retroflexus; settings: 17 DAA
Experimental: (§1) Plants were treated postemergence at the 2-4 leaf growth stage, and each treatment was replicated three times. […] Plants were watered as needed. […] Results for barley and wheat are the means across varieties of the three replicates, and results for the weeds are the means of the three replicates.

field violet (VIOAR) = assay: Test 24 growth chamber, postemergence; assay type: in vivo, Viola arvensis; settings: 17 DAA
Experimental: as §1

corn (ZEAMD) [1] = assay: Test 25 field trial, postemergence, growth as percent of control; assay type: in vivo, Zea mays ssp. indentata; settings: hybrid Pioneer 31G96 RR, Zea mays ssp. indentata (corn), in vivo
From the text: Corn seeds (hybrid ‘Pioneer 31G96 RR’) were planted in mid spring season, 3.8 cm deep in a clay loam soil having 2% organic matter and a pH of 6.6. Plots were 6.1 m long by 3.0 m wide with rows spaced 76 cm apart. Seeds were spaced 15 cm apart within the rows. The field was managed using conventional tillage practices. […] Giant ragweed and Pennsylvania smartweed could only be evaluated 14 days after application. […] Results are the means of the three replicates. This growth inhibition data was converted to results in the form of “plant growth as a percent of control plant growth” using the calculation “100 minus growth inhibition”.
When this form of Colby's Equation is used, if the observed effects on weeds are less than the expected values, the mixture is synergistic.

corn (ZEAMD) [2] = assay: Test 26 field trial, postemergence; assay type: in vivo, Zea mays ssp. indentata; set-up: scale not given here
From the text: (§2) Corn seeds (hybrid ‘Pioneer 31G96’) were planted in mid spring season, 3.8 cm deep in a silt loam soil having 2% organic matter and a pH of 6.6. Plots were 6.1 m long by 3.0 m wide with rows spaced 76 cm apart. Seeds were spaced 15 cm apart within the rows. The field was managed using conventional tillage practices. […] All treatments also included a surfactant. […] Some of the weed species could not be evaluated at every timing. […] Results are the means of the three replicates.

common ragweed (AMBEL) = assay: Test 26 field trial, postemergence; assay type: in vivo, Ambrosia artemisiifolia; set-up: scale not given here
From the text: as §2

sorghum (SORVU) = assay: Test 28 greenhouse, postemergence; assay type: in vivo, Sorghum vulgare; settings: 26 DAA
Experimental: (§3) A greenhouse test was conducted to evaluate the effects on the plant species corn (ZEAMD, Zea mays ssp. indentata), sorghum (SORVU, Sorghum vulgare L.), dry-seeded rice (ORYSA, Oryza sativa L.), wheat (TRZAW, Triticum aestivum L.), ivyleaf morningglory (IPOHE, Ipomoea hederacea (L.) JACQ.), and barnyardgrass (ECHCG, Echinochloa crus-galli (L.) P. BEAUV.), of mixtures of Compound 2 with isoxadifen-ethyl. Corn, sorghum, rice, wheat, ivyleaf morningglory and barnyardgrass seeds were planted in RediEarth, a commercial potting medium. […] Corn plants were treated postemergence at the V2 growth stage, and sorghum, rice, wheat, ivyleaf morningglory, and barnyardgrass plants were treated postemergence at the 3-leaf stage. […] Each treatment was replicated three times. […] Plants were watered as needed.

wheat (TRZAW) = assay: Test 28 greenhouse, post- and preemergence; assay type: in vivo, Triticum aestivum; settings: 26 DAA
Experimental: as §3

corn (ZEAMD) [3] = assay: Test 31 field trial, corn hybrids at V4 growth stage; assay type: in vivo, Zea mays ssp. indentata; settings: postemergence, 14 DAA; for 34A15 Obs: corn hybrid 34A15; for 34N43 Obs: corn hybrid 34N43; for 35D28 Obs: corn hybrid 35D28; for 3730 Obs: corn hybrid 3730
From the text: Corn seeds of hybrids Pioneer ‘34A15’, ‘34N43’, ‘35D28’, and ‘3730’ were planted in mid-spring season, approximately 3.8 cm deep in a sandy loam soil having 3.8% organic matter and a pH of 6.5. Plots were 9.1 m long by 3.0 m wide with rows spaced 76 cm apart. Seeds were spaced approximately 18 cm apart within the rows. The field was managed using conventional tillage practices. Plots were arranged with hybrid as the main block and herbicide treatments randomized within each block. Treatments were applied to corn in the V4 growth stage using a backpack sprayer delivering a spray volume of 131 L/ha with a pressure of 221 kPa. Treatments consisted of Compound 2 alone and in combination with a premix formulation of foramsulfuron and isoxadifen-ethyl, dissolved or suspended in water containing the spray adjuvants ammonium sulfate, applied at 1 kg/Ha, and methylated seed oil, applied at 1% vol/vol. Effects on the treated corn plants and untreated controls were recorded 14 days after application.

COC(=O)c1nc(C2CC2)nc(N)c1Cl [Compound 2, methyl 6-amino-5-chloro-2-cyclopropyl-4-pyrimidinecarboxylate]
AMARE Obs (scale 0 to 100) (redroot pigweed (AMARE); Cpd 2 4 g a.i./ha): 63 | AMARE Obs (scale 0 to 100) (redroot pigweed (AMARE); Cpd 2 8 g a.i./ha): 67 | AMARE Obs (scale 0 to 100) (redroot pigweed (AMARE); Cpd 2 16 g a.i./ha): 75 | VIOAR Obs (scale 0 to 100) (field violet (VIOAR); Cpd 2 4 g a.i./ha): 47 | VIOAR Obs (scale 0 to 100) (field violet (VIOAR); Cpd 2 8 g a.i./ha): 62 | VIOAR Obs (scale 0 to 100) (field violet (VIOAR); Cpd 2 16 g a.i./ha): 72 | ZEAMD Obs (percent of control) (corn (ZEAMD) [1]; 14 days after application): 100% | ZEAMD Obs (percent of control) (corn (ZEAMD) [1]; 56 days after application): 100% | ZEAMD Obs (corn (ZEAMD) [2]; 14 DAA, 30 g a.i./ha): 0 | ZEAMD Obs (corn (ZEAMD) [2]; 14 DAA, 45 g a.i./ha): 2 | ZEAMD Obs (corn (ZEAMD) [2]; 14 DAA, 60 g a.i./ha): 7 | ZEAMD Obs (corn (ZEAMD) [2]; 28 DAA, 30 g a.i./ha): 2 | ZEAMD Obs (corn (ZEAMD) [2]; 28 DAA, 45 g a.i./ha): 3 | ZEAMD Obs (corn (ZEAMD) [2]; 28 DAA, 60 g a.i./ha): 5 | ZEAMD Obs (corn (ZEAMD) [2]; 56 DAA, 30 g a.i./ha): 0 | ZEAMD Obs (corn (ZEAMD) [2]; 56 DAA, 45 g a.i./ha): 0 | ZEAMD Obs (corn (ZEAMD) [2]; 56 DAA, 60 g a.i./ha): 7 | AMBEL Obs (common ragweed (AMBEL); 14 DAA, 30 g a.i./ha): 94 | AMBEL Obs (common ragweed (AMBEL); 14 DAA, 45 g a.i./ha): 67 | AMBEL Obs (common ragweed (AMBEL); 14 DAA, 60 g a.i./ha): 98 | AMBEL Obs (common ragweed (AMBEL); 28 DAA, 30 g a.i./ha): 88 | AMBEL Obs (common ragweed (AMBEL); 28 DAA, 45 g a.i./ha): 95 | AMBEL Obs (common ragweed (AMBEL); 28 DAA, 60 g a.i./ha): 98 | AMBEL Obs (common ragweed (AMBEL); 56 DAA, 30 g a.i./ha): 73 | AMBEL Obs (common ragweed (AMBEL); 56 DAA, 45 g a.i./ha): 95 | AMBEL Obs (common ragweed (AMBEL); 56 DAA, 60 g a.i./ha): 95 | SORVU Obs (sorghum (SORVU); Cpd 2 32 g a.i./ha): 73% | SORVU Obs (sorghum (SORVU); Cpd 2 64 g a.i./ha): 96% | TRZAW Obs (wheat (TRZAW); postemergence, Cpd 2 32 g a.i./ha): 80% | TRZAW Obs (wheat (TRZAW); postemergence, Cpd 2 64 g a.i./ha): 90% | TRZAW Obs (wheat (TRZAW); preemergence, Cpd 2 32 g a.i./ha): 0% | TRZAW Obs (wheat (TRZAW); preemergence, Cpd 2 64 g a.i./ha): 27% | 34A15 Obs (corn (ZEAMD) [3]; Cpd 2 30 g a.i./ha): 25 | 34A15 Obs (corn (ZEAMD) [3]; Cpd 2 60 g a.i./ha): 30 | 34N43 Obs (corn (ZEAMD) [3]; Cpd 2 30 g a.i./ha): 15% | 34N43 Obs (corn (ZEAMD) [3]; Cpd 2 60 g a.i./ha): 20% | 35D28 Obs (corn (ZEAMD) [3]; Cpd 2 30 g a.i./ha): 60 | 35D28 Obs (corn (ZEAMD) [3]; Cpd 2 60 g a.i./ha): 65 | 3730 Obs (corn (ZEAMD) [3]; Cpd 2 30 g a.i./ha): 60 | 3730 Obs (corn (ZEAMD) [3]; Cpd 2 60 g a.i./ha): 75
